From PMC12595434, “Development of retinoid nuclear receptor pathway antagonists through targeting aldehyde dehydrogenase 1A3” (iScience, 2025)

What was measured:
human ALDH1A1 = target: T1, human ALDH1A1 (Homo sapiens, UniProt P00352); test: Recombinant enzyme activity assay; assay type: biochemical; settings: dose titration, up to 10 μM
T1 construct: made in house; host or cells: BL21-DE3 E. coli
T1 sequence (P00352 1-501): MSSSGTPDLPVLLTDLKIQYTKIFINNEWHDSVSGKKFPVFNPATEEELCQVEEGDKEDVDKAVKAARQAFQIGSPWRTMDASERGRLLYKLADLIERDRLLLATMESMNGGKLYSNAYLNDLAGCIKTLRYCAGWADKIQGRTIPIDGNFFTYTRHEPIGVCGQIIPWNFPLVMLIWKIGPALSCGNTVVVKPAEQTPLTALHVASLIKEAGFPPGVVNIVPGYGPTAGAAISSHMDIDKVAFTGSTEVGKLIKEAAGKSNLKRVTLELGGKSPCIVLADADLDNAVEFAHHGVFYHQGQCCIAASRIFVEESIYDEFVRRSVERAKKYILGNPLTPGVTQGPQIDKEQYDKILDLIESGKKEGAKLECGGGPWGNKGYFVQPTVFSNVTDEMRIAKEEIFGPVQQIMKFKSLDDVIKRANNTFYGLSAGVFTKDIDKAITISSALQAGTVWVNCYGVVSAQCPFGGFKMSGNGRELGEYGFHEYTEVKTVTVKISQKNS

ALDH1A3 [1] = target: T2, ALDH1A3 (Homo sapiens, UniProt P47895); test: Recombinant enzyme activity assay; assay type: biochemical; set-up: made in house; host or cells: BL21-DE3 E. coli; settings: dose titration, up to 10 μM
T2 sequence (P47895 1-512): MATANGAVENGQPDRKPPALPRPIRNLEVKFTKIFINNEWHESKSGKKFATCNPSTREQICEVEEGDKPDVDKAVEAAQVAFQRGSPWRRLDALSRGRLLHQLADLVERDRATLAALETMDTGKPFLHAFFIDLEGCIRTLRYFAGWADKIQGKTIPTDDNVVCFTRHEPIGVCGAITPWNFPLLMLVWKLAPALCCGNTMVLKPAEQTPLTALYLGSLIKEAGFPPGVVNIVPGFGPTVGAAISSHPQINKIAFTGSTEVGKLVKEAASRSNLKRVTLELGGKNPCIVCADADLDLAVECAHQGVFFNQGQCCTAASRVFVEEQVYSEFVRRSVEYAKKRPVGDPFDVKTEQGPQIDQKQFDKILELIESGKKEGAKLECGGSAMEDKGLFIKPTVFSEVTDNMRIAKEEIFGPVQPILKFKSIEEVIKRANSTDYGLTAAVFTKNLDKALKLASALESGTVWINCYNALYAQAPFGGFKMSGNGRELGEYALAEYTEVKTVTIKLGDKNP

[2] = target: T3, human ALDH1A3 in A375 cells (Homo sapiens, UniProt P47895); test: Aldefluor assay in A375 cells; assay type: cell-based; settings: up to 10 μM
T3 construct: the cell lines with high endogenous ALDH1A3 activity: MDA-MB-468 (triple-negative breast cancer), A375 (melanoma), and LN229 (glioblastoma); endogenous in cells; host or cells: A375
T3 sequence (P47895 1-512): T2 sequence (P47895 1-512)

human ALDH1A2 = target: T4, human ALDH1A2 (Homo sapiens, UniProt O94788); test: Recombinant enzyme activity assay; assay type: biochemical; settings: dose titration, up to 10 μM
T4 construct: made in house; host or cells: BL21-DE3 E. coli
T4 sequence (O94788 1-518): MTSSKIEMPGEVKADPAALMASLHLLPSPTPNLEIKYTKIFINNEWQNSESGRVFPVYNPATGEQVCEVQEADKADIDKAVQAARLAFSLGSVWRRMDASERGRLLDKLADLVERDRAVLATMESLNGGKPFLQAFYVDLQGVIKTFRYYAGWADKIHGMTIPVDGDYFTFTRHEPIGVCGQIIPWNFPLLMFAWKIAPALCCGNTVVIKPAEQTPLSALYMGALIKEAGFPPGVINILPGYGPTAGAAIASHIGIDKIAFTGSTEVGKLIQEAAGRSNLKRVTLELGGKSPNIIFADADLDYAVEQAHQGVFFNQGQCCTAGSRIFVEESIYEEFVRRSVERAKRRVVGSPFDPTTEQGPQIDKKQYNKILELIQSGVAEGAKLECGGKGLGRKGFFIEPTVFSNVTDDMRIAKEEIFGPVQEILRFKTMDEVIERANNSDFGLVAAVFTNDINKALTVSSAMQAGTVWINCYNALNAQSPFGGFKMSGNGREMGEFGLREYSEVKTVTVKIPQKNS
Procedure: Human and mouse ALDH enzymes were cloned from respective reference RNA, constructed into plasmids using restriction enzyme cloning and confirmed by Sanger Sequencing. Genes were cloned into a vector containing the T7 promoter for bacterial expression and into a lentiviral expression vector for cell line expression as previously described.[78] Recombinant protein was isolated by inducing BL21-DE3 E. coli (Thermo Fisher) containing the respective plasmid for 20 h at room temperature, shaking, with 300 μM IPTG (Selleck Chem). Cell disruption was achieved via ultrasonication (Φ10, 3s on/6s off, 25min) in 1L of amplified bacterial culture. The target protein was then purified using Ni NTA beads 6FF affinity chromatography. Lysis buffer consisted of 50 mM Na2HPO4, 300 mM NaCl, 1 mM β-ME, pH7.5. The column (2 mL) was washed with 50 mM Na2HPO4, 300 mM NaCl, 1 mM β-ME, 20 mM Imidazole, pH7.5. Elution was performed using 3 mL of 50 mM Na2HPO4, 300 mM NaCl, 1 mM β-ME, 250 mM Imidazole, pH7.5. Following affinity chromatography, the protein underwent further purification via Gel filtration chromatography using a Superdex200 column. Aliquots were quality controlled against a pure internal standard enzyme and/or by western blot to confirm enzyme expression. Purified enzyme was used for biochemical and biophysical assays.
For the recombinant enzyme activity assay, enzyme aliquots were thawed on ice for 4 h prior to analysis and the protocol was performed as described[8] with the following key changes: 1) Final concentrations of NAD+ (Gold Bio) were 200 μM and BSA were 1 mg/mL 2) Propanaldehyde was used as the substrate for ALDH1A1 and ALDH2. 3) Reaction velocity was monitored through diaphorase (clostridium) coupled reduction of resazurin (100 μM) monitored with ex/em of 560nm/590 nm in order to regenerate NAD+ and thus maintain constant cofactor concentration as well as to avoid high absorbance values of many screening compounds at the NADH absorbance. Assays were conducted at room temperature (controlled to 21-23C) and all buffers were maintained at pH 7.5. For all reactions, pre-incubation time was approximately 2 min while the reaction monitoring was performed over 10 min.

ALDH1A1 in HepG2 cells = target: T5, ALDH1A1 in HepG2 cells (Homo sapiens, UniProt P00352); test: Aldefluor assay in HepG2 cells; assay type: cell-based; settings: 45 min incubation at 37°C
T5 construct: endogenous in cells; host or cells: HepG2
Procedure: In addition, cells were suspended at a concentration of 100,000 cells per mL. Finally, DMSO was added to at 1% final in all cells to improve kinetics of the assay. For compound titrations, concentrated compound stock was added first to tubes and a uniform Aldefluor buffer containing the cell suspension was added to dilute to final volumes. Cells were analyzed by a BD LSRII for flow cytometry and were sorted using a FACSAria Fusion cell sorter (BD Biosciences) equipped with a 70 micron nozzle. Sample and sort collection tubes were kept at 4°C. […] DAPI was used as a live-dead indicator.

MDA-MB-468 cells = settings: MDA-MB-468, 24 hour incubation, highest tested dose 10 μM
HaCaT cells = test: Dose-titration cytotoxicity analysis; settings: 24 hour incubation, highest tested dose 10 μM
ALDH1A3 cells = settings: cited from earlier work
ALDH1A3 [3] = settings: read-out: reported IC50 for ALDH1A3; cited from earlier work

SMILES | inhibitory activity against ALDH1A1 (in words) (human ALDH1A1) | inhibitory activity against ALDH1A3 (in words) (ALDH1A3 [1]) | activity in Aldefluor assay, A375 cells (in words) [2] | inhibitory activity against ALDH1A2 (in words) (human ALDH1A2) | inhibition at 10 µM (ALDH1A1 in HepG2 cells) [%] | nonspecific cytotoxicity (in words) (MDA-MB-468 cells) | nonspecific cytotoxicity (in words) (HaCaT cells) | reported cytotoxic activity against ALDH1A3 cells (in words) (ALDH1A3 cells) | IC50 (ALDH1A3 [3]) [nM] | inhibition (GABAA) [%]
CSC(=O)C#CC(C)(C)N(C)C [DIMATE, S-methyl 4-(dimethylamino)-4-methyl-pent-2-ynethioate] | did not show any activity | did not show any activity | no dose-dependent inhibition of activity | did not show any activity | 13 |  |  |  |  | 
c1ccc(-c2ccc3nc(-c4ccccc4)cn3c2)cc1 [GA11] | no activity up to 10 μM | no ALDH1A3 inhibitory activity up to 10 μM |  | no activity up to 10 μM |  | potent cytotoxicity above 100 nM | potent cytotoxicity above 100 nM | picomolar | 660 | 
CCOC(=O)c1ncn2c1CN(C)C(=O)c1cc(F)ccc1-2 [flumazenil] |  |  |  |  |  |  |  |  |  | 95.9
